Biological target: T1, Caspase-3 (Homo sapiens, UniProt P42574)
T1 sequence (P42574 whole entry): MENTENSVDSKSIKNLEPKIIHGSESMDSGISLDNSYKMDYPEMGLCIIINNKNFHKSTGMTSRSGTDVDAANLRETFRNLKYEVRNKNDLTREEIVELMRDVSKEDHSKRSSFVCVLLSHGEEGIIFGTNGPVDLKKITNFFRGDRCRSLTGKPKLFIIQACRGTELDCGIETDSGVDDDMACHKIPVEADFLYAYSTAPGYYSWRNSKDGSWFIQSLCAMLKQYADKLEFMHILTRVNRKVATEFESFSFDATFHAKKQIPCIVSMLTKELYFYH
Assay: Inhibitory concentration of compound against caspase-3

`COc1ccc(Br)cc1CC(=O)N[C@H](C(=O)N[C@@H](CC(=O)O)C(=O)CSCc1ccccc1)C(C)C` showed an IC50 of 17.7 nM.
